Results on four compounds are retold here after patent US11608383B2, “Bispecific antibody against CD3 and CD20 in combination therapy for treating follicular lymphoma” (GENMAB A/S, priority 2020, dated 2023).

The test system of one series is follicular lymphoma. Conditions: double-refractory cases; Salles et al., Haematologica 2017; cited from earlier work.
Series [1] concerns primary DLBCL and follicular lymphoma patient biopsies. Conditions: biopsies taken after administration of an anti-CD20 antibody; cited from earlier work.
In series [2] the test system is CD20-expressing Raji-luc tumor cells. To be noted: NOD-SCID mice with Raji-luc cells and PBMCs; even with excess IgG1-RTX-FEAR; cited from earlier work.
Series [3] has as its system CD20-expressing Daudi cells. Briefly: T-cell-mediated cytotoxicity assay with lenalidomide-pre-treated T cells. Type of series: cell-based. Conditions: T cells pre-treated with lenalidomide and anti-CD3; E:T ratio 2:1. How it is done:
T cells were incubated with (5 or 50 μM) or without lenalidomide in the absence or presence of immobilized anti-CD3 for 3 days. T cells were then used in a cytotoxicity assay with DuoBody-CD3×CD20 or DuoBody-CD3×ctrl (containing a CD3 arm and a non-binding control arm) and CD20-expressing Daudi cells as target cells (E:T ratio 2:1). Data shown are average percentages cytotoxicity±SD of duplicates, normalized to medium control (no antibody, no lenalidomide).
(§1) Briefly, T cells were activated with immobilized anti-CD3 in the presence (5 or 50 μM) or absence of lenalidomide for 3 days. […] T cells that were activated in the presence or absence of lenalidomide were subsequently tested for their cytotoxic capacity in response to epcoritamab.

The target of the next series is T1, CD20 (Homo sapiens, UniProt P11836).
T1 sequence (P11836 1-297): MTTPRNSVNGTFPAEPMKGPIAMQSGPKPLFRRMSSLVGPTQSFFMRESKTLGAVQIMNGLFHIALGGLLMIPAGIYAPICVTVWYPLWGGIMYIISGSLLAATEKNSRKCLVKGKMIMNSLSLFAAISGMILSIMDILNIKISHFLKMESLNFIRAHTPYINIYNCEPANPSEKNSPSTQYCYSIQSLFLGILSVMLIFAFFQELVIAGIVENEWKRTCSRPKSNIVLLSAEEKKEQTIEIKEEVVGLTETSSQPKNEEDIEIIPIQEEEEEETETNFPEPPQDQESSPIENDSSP
Conditions: rituximab versus IgG1-CD20; different epitopes; cited from earlier work.

The next series concerns T cells. Put plainly: T-cell activation with immobilized anti-CD3 in the presence of lenalidomide. Format: cell-based. To be noted: lenalidomide 5 or 50 μM with CD3 crosslinking, 3 days, vs no lenalidomide. The procedure: T cells were pre-incubated with assay medium or lenalidomide in the absence or presence of CD3 crosslinking by immobilized anti-CD3 for 3 days (as indicated on the x-axes), after which upregulation of CD69, CD25, PD-1 and LAMP-1 on CD4^+ and CD8^+ T cells was determined by flow cytometry. Data shown are geomean fluorescence intensities (FI) for four donors (each circle represents one condition for one donor). Pre-incubation conditions are shown on the x-axis.
as §1

In the case of `CC[C@H](Nc1ncnc2[nH]cnc12)c1nc2cccc(F)c2c(=O)n1-c1ccccc1` [idelalisib], the “1-year PFS” value in the series with follicular lymphoma was 43%.

In the case of “epcoritamab: IgG1 bispecific CD3×CD20 antibody; heavy/light chain pairs SEQ ID NOs: 24/25 and 26/27; CAS 2134641-34-0”, in series [1], the “T-cell-mediated cytotoxicity in patient biopsies” value was “induced T-cell-mediated cytotoxicity”. For the same compound, the “Tumor growth in xenograft model” value in series [2] is reported as “effectively reduce tumor growth”. For the same compound, in series [3], the “Activity at lower epcoritamab concentrations” value is on record as “higher activity at lower epcoritamab concentrations” and the Maximum percent cytotoxicity result was “Higher maximum percent cytotoxicity”.

In the case of “IgG1-CD20: CD20 antibody of which the CD20 arm of epcoritamab is derived (7D8)”, the “Competition for CD20 binding” value with CD20 was “compete for CD20 binding”.

As to `Nc1cccc2c1CN(C1CCC(=O)NC1=O)C2=O` (stereo not shown) [lenalidomide, 3-(4-Amino-1-oxo-1,3-dihydro-2H-isoindol-2-yl) piperidine-2,6-dione], the “T-cell activation (upregulation of CD69, CD25; release of granzyme B and IFNγ)” value with T cells is listed as “increased T-cell activation”.
